Results: US20100104509A1, “HUMAN ANTIBODIES THAT BIND CD19 AND USES THEREOF” (Medarex, Inc., priority 2006, published 2010)

Test system: B-cells (CD22) in human whole blood
Assay: Whole blood B-cell depletion assay
Format: cell-based
Conditions: overnight 37° C.; for % Change: B-cell depletion vs non-treated group
Method: To determine if the anti-CD19 antibodies were capable of depleting B-cells, a whole blood B-cell depletion assay was set up.
Human whole blood was purchased from AllCells Inc. (Berkeley, Calif.) and delivered the same day at room temperature. Two ml of whole blood was incubated in the absence or presence of […] of the indicated antibodies, or PBS as the untreated group. The blood-antibody mixture was incubated overnight at 37° C. with 5% CO2. On the day of the experiment, the blood was lysed twice with RBC lysis buffer at 1:10 ratio by incubating for 10 minutes followed by centrifugation. After the second spin, the cell pellets were washed once with FACS buffer (PBS plus Calcium and Magnesium with 2% FBS and 20% versene), and followed by FAGS staining with anti-CD3 antibody (Becton Dickinson) as the T-Cell makers and anti-CD22 antibody (Becton Dickinson) as a B-cell makers using standard Flow cytometry protocols. Cells were incubated on ice for 20 min prior to the final washes and resuspended in […] propidium iodide solution (Sigma) in FACS buffer. Data was collected by flow cytometry using a FASCalibur system and CellQuest software by Becton Dickinson, and analyzed via FlowJo software using lymphocyte size gating. Percent change was calculated by determining the % positive B-cells in the non-treated group minus the % positive B-cells in the antibody treated group divided by % positive B-cells in the non treated group times 100. From a healthy blood donor, 8.7% B-cells remained in the blood following an overnight incubation (no antibody). Incubating whole blood with […] of positive control Rituxan led to a 46% depletion in the number of B-cells when compared to the untreated, no antibody group.

With “Rituxan: positive control in the whole blood B-cell depletion assay [reference compound]” the “% Change” value was 46%, the “% Change” value (listed as Rituxan ®) was 46.3% and the “% Positive (CD22)” value (1-30 mg/ml antibody) was 4.7%.
